Target: USP1 (construct USP1 (I-785, GG670, 671AA)/UAF1 (I-677)-Flag) (Homo sapiens (Human), UniProt O94782, G670A/G671A)
Test: Ubiquitin-Rhodamine 110 assay for USP1 activity
Type: biochemical
Conditions: USP1/UAF1 25 pM, Ub-Rh110 25 nM, 30 min preincubation
Method in brief: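 Two formats with the USP1/UAF1 complex and 25 nM ubiquitin-rhodamine 110 in pH 8.0 Tris buffer with calcium, glutathione and detergent. Single-point screening used 10 µM, 100 pM enzyme and 45 min. Inhibition was set against no-enzyme and DMSO wells.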

USP1 (construct USP1 (I-785, GG670, 671AA)/UAF1 (I-677)-Flag), sequence (O94782 whole entry G670A/G671A): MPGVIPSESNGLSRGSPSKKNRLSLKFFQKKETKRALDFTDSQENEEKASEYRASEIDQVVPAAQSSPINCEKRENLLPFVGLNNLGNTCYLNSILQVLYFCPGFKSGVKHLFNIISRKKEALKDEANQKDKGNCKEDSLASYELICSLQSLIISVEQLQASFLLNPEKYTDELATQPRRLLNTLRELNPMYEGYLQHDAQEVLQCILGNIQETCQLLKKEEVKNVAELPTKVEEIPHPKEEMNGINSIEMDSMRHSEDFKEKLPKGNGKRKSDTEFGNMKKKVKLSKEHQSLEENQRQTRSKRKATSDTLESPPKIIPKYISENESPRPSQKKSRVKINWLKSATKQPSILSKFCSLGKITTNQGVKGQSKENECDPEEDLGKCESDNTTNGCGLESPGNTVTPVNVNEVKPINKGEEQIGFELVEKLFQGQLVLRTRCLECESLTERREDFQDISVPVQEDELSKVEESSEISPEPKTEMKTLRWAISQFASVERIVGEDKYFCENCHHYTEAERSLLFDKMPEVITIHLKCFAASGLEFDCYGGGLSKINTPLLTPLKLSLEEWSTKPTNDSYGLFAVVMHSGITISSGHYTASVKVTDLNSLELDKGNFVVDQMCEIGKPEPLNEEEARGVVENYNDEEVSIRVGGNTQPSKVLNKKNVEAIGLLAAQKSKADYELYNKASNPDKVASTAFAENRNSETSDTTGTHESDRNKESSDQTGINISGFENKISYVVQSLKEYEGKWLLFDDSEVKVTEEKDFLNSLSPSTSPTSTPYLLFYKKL
USP1 (construct USP1 (I-785, GG670, 671AA)/UAF1 (I-677)-Flag), sequence (Q8TAF3 whole entry partner): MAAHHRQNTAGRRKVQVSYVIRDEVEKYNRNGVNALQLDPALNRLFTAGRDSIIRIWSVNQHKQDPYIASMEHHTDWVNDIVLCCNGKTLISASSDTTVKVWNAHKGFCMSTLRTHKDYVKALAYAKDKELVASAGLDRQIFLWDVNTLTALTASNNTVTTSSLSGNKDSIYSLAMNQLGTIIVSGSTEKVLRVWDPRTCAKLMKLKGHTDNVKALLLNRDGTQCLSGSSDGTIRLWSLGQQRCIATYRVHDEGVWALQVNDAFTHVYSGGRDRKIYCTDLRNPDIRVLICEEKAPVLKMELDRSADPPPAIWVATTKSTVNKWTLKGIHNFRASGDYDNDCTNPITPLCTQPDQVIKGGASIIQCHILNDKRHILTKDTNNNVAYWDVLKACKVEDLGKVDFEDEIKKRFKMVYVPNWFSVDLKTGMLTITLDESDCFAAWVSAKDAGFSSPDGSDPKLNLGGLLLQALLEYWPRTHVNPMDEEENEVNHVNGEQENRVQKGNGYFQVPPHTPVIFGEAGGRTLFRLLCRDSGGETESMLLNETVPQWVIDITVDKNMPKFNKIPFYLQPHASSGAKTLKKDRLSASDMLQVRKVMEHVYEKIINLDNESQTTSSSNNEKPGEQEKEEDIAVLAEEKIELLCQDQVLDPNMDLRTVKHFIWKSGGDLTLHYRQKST

SMILES: CC(C)c1ccccc1-c1ncc2c(n1)n(Cc1ccc(N(C)C(=O)NC3CC3)cc1)c(=O)n2C [Compound I-486, 3-cyclopropyl-1-(4-((2-(2-isopropylphenyl)-7-methyl-8-oxo-7,8-dihydro-9H-purin-9-yl)methyl)phenyl)-1-methylurea]
- IC50: 0.2 to 2 µM

SMILES: CC(C)NC(=O)N1CCC(F)(Cn2c(=O)[nH]c3cnc(-c4ccccc4C(C)C)nc32)CC1 [Compound I-487, 4-fluoro-N-isopropyl-4-((2-(2-isopropylphenyl)-8-oxo-7,8-dihydro-9H-purin-9-yl)methyl)piperidine-1-carboxamide]
- IC50: > 2 µM

SMILES: CC(C)c1ccccc1-c1ncc2c(n1)n(Cc1ccc(NCC3CC3)cc1)c(=O)n2C [Compound I-488, 9-(4-((cyclopropylmethyl)amino)benzyl)-2-(2-isopropylphenyl)-7-methyl-7,9-dihydro-8H-purin-8-one]
- IC50: 0.05 to 0.2 µM

SMILES: COCCNc1ccc(Cn2c(=O)n(C)c3cnc(-c4ccccc4C(C)C)nc32)cc1 [Compound I-489, 2-(2-isopropylphenyl)-9-(4-((2-methoxyethyl)amino)benzyl)-7-methyl-7,9-dihydro-8H-purin-8-one]
- IC50: 0.05 to 0.2 µM

SMILES: CC(C)c1ccccc1-c1ncc2c(n1)n(Cc1ccc(N(C)CC3CC3)cc1)c(=O)n2C [Compound I-490, 9-(4-((cyclopropylmethyl)(methyl)amino)benzyl)-2-(2-isopropylphenyl)-7-methyl-7,9-dihydro-8H-purin-8-one]
- IC50: 0.2 to 2 µM

SMILES: COCCN(C)c1ccc(Cn2c(=O)n(C)c3cnc(-c4ccccc4C(C)C)nc32)cc1 [Compound I-491, 2-(2-isopropylphenyl)-9-(4-((2-methoxyethyl)(methyl)amino)benzyl)-7-methyl-7,9-dihydro-8H-purin-8-one]
- IC50: 0.2 to 2 µM

SMILES: CC(C)c1ccccc1-c1ncc2c(n1)n(CC1CCN(c3nncs3)CC1)c(=O)n2C [Compound I-492, 9-((1-(1,3,4-thiadiazol-2-yl)piperidin-4-yl)methyl)-2-(2-isopropylphenyl)-7-methyl-7,9-dihydro-8H-purin-8-one]
- IC50: > 2 µM

SMILES: CC(C)c1ccccc1-c1ncc2c(n1)n(CC1CCN(c3ncccn3)CC1)c(=O)n2C [Compound I-493, 2-(2-isopropylphenyl)-7-methyl-9-((1-(pyrimidin-2-yl)piperidin-4-yl)methyl)-7,9-dihydro-8H-purin-8-one]
- IC50: > 2 µM

SMILES: Cc1nc(N2CCC(Cn3c(=O)n(C)c4cnc(-c5ccccc5C(C)C)nc43)CC2)c(C)s1 [Compound I-494, 9-((1-(2,5-dimethylthiazol-4-yl)piperidin-4-yl)methyl)-2-(2-isopropylphenyl)-7-methyl-7,9-dihydro-8H-purin-8-one]
- IC50: 0.05 to 0.2 µM

SMILES: CC(C)c1ccccc1-c1ncc2[nH]c(=O)n(C3CCC34CN(c3cccnc3)C4)c2n1 (stereo not drawn) [Compound I-495, 2-(2-isopropylphenyl)-9-(2-(pyridin-3-yl)-2-azaspiro[3.3]heptan-5-yl)-7,9-dihydro-8H-purin-8-one]
- IC50: 0.2 to 2 µM

SMILES: CCn1ccnc1-c1ccc(Cn2c(=O)n(C)c3cnc(-c4ccccc4C(C)C)nc32)cc1 [Compound I-496, 9-(4-(1-ethyl-1H-imidazol-2-yl)benzyl)-2-(2-isopropylphenyl)-7-methyl-7,9-dihydro-8H-purin-8-one]
- IC50: < 0.05 µM

SMILES: CC(C)c1ccccc1-c1ncc2c(n1)n(Cc1ccc(-c3nccn3C(C)C)cc1)c(=O)n2C [Compound I-497, 9-(4-(1-isopropyl-1H-imidazol-2-yl)benzyl)-2-(2-isopropylphenyl)-7-methyl-7,9-dihydro-8H-purin-8-one]
- IC50: < 0.05 µM

SMILES: COCCn1ccnc1-c1ccc(Cn2c(=O)n(C)c3cnc(-c4ccccc4C(C)C)nc32)cc1 [Compound I-498, 2-(2-isopropylphenyl)-9-(4-(1-(2-methoxyethyl)-1H-imidazol-2-yl)benzyl)-7-methyl-7,9-dihydro-8H-purin-8-one]
- IC50: < 0.05 µM

SMILES: CC(C)c1ccccc1-c1ncc2c(n1)n(Cc1ccc(-c3nccn3C3CCNCC3)cc1)c(=O)n2C [Compound I-499, 2-(2-isopropylphenyl)-7-methyl-9-(4-(1-(piperidin-4-yl)-1H-imidazol-2-yl)benzyl)-7,9-dihydro-8H-purin-8-one]
- IC50: < 0.05 µM

SMILES: CC(C)c1ccccc1-c1ncc2c(n1)n(Cc1ccc(-c3nccn3C(F)F)cc1)c(=O)n2C [Compound I-500, 9-(4-(1-(difluoromethyl)-1H-imidazol-2-yl)benzyl)-2-(2-isopropylphenyl)-7-methyl-7,9-dihydro-8H-purin-8-one]
- IC50: < 0.05 µM

SMILES: Cc1cn(C)c(N2CCC(Cn3c(=O)n(C)c4cnc(-c5ccccc5C(C)C)nc43)CC2)n1 [Compound I-501, 9-((1-(1,4-Dimethyl-1H-imidazol-2-yl)piperidin-4-yl)methyl)-2-(2-isopropylphenyl)-7-methyl-7,9-dihydro-8H-purin-8-one]
- IC50: 0.05 to 0.2 µM

SMILES: CC(C)c1ccccc1-c1ncc2[nH]c(=O)n(CC3CN(c4nccc(C(F)(F)F)n4)C3)c2n1 [Compound I-502, 2-(2-Isopropylphenyl)-9-((1-(4-(trifluoromethyl)pyrimidin-2-yl)azetidin-3-yl)methyl)-7,9-dihydro-8H-purin-8-one]
- IC50: > 2 µM

SMILES: Cc1cc(C(=O)N(C)C)nn1-c1ccc(Cn2c(=O)[nH]c3cnc(-c4ccccc4C(C)C)nc32)cc1 [Compound I-503, 1-(4-((2-(2-Isopropylphenyl)-8-oxo-7,8-dihydro-9H-purin-9-yl)methyl)phenyl)-N,N,5-trimethyl-1H-pyrazole-3-carboxamide]
- IC50: < 0.05 µM

SMILES: Cc1cc(C(=O)N(C)C)nn1-c1ccc(Cn2c(=O)[nH]c3cnc(-c4ccccc4C4CC4)nc32)cc1 [Compound I-504, 1-(4-((2-(2-Cyclopropylphenyl)-8-oxo-7,8-dihydro-9H-purin-9-yl)methyl)phenyl)-N,N,5-trimethyl-1H-pyrazole-3-carboxamide]
- IC50: 0.05 to 0.2 µM

SMILES: CC(C)c1ccccc1-c1ncc2[nH]c(=O)n(CC3(F)CCN(c4cccnc4)CC3)c2n1 [Compound I-505, 9-((4-Fluoro-1-(pyridin-3-yl)piperidin-4-yl)methyl)-2-(2-isopropylphenyl)-7,9-dihydro-8H-purin-8-one]
- IC50: 0.2 to 2 µM

SMILES: CC(C)c1ccccc1-c1ncc2[nH]c(=O)n(Cc3ccc(-c4nc(C(F)(F)F)cn4CCO)cc3)c2n1 [Compound I-506, 9-(4-(1-(2-hydroxyethyl)-4-(trifluoromethyl)-1H-imidazol-2-yl)benzyl)-2-(2-isopropylphenyl)-7,9-dihydro-8H-purin-8-one]
- IC50: < 0.05 µM

SMILES: CCn1c(=O)n(Cc2ccc(-c3nc(C(F)(F)F)cn3C)cc2)c2nc(-c3cccnc3C(C)C)ncc21 [Compound I-507, 7-Ethyl-2-(2-isopropylpyridin-3-yl)-9-(4-(1-methyl-4-(trifluoromethyl)-1H-imidazol-2-yl)benzyl)-7,9-dihydro-8H-purin-8-one]
- IC50: < 0.05 µM

SMILES: CC(C)c1ccccc1-c1ncc2[nH]c(=O)n(Cc3cnc(-n4cccn4)cn3)c2n1 [Compound I-508, 9-((5-(1H-Pyrazol-1-yl)pyrazin-2-yl)methyl)-2-(2-isopropylphenyl)-7,9-dihydro-8H-purin-8-one]
- IC50: > 2 µM

SMILES: CC(C)c1ccccc1-c1ncc2[nH]c(=O)n(Cc3ncc(-n4cccn4)cn3)c2n1 [Compound I-509, 9-((5-(1H-pyrazol-1-yl)pyrimidin-2-yl)methyl)-2-(2-isopropylphenyl)-7,9-dihydro-8H-purin-8-one]
- IC50: > 2 µM

SMILES: Cc1cc(C)n(-c2cnc(Cn3c(=O)[nH]c4cnc(-c5ccccc5C(C)C)nc43)cn2)n1 [Compound I-510, 9-((5-(3,5-Dimethyl-1H-pyrazol-1-yl)pyrazin-2-yl)methyl)-2-(2-isopropylphenyl)-7,9-dihydro-8H-purin-8-one]
- IC50: 0.05 to 0.2 µM

SMILES: Cc1cc(C)n(-c2cnc(Cn3c(=O)[nH]c4cnc(-c5ccccc5C(C)C)nc43)nc2)n1 [Compound I-511, 9-((5-(3,5-Dimethyl-1H-pyrazol-1-yl)pyrimidin-2-yl)methyl)-2-(2-isopropylphenyl)-7,9-dihydro-8H-purin-8-one]
- IC50: 0.2 to 2 µM

SMILES: CC(C)c1ccccc1-c1ncc2[nH]c(=O)n(Cc3ccc(N4CCCC4=O)cc3)c2n1 [Compound I-512, 2-(2-Isopropylphenyl)-9-(4-(2-oxopyrrolidin-1-yl)benzyl)-7,9-dihydro-8H-purin-8-one]
- IC50: 0.05 to 0.2 µM

SMILES: CC(C)c1ccccc1-c1ncc2[nH]c(=O)n(Cc3ccc(-c4nnn[nH]4)cc3)c2n1 [Compound I-513, 9-(4-(1H-tetrazol-5-yl)benzyl)-2-(2-isopropylphenyl)-7,9-dihydro-8H-purin-8-one]
- IC50: > 2 µM

SMILES: Cc1nc(N2CCC(F)(Cn3c(=O)[nH]c4cnc(-c5ccccc5C(C)C)nc43)CC2)c(C)s1 [Compound I-514, 9-((1-(2,5-Dimethylthiazol-4-yl)-4-fluoropiperidin-4-yl)methyl)-2-(2-isopropylphenyl)-7,9-dihydro-8H-purin-8-one]
- IC50: < 0.05 µM

SMILES: CC(C)c1ncccc1-c1ncc2c(n1)n(Cc1ccc(-c3nc(C4CC4)cn3C)cc1)c(=O)n2C [Compound I-515, 9-(4-(4-cyclopropyl-1-methyl-1H-imidazol-2-yl)benzyl)-2-(2-isopropylpyridin-3-yl)-7-methyl-7,9-dihydro-8H-purin-8-one]
- IC50: 0.05 to 0.2 µM

SMILES: CC(C)c1cnccc1-c1ncc2c(n1)n(Cc1ccc(-n3cccn3)cc1)c(=O)n2C [Compound I-516, 9-(4-(1H-Pyrazol-1-yl)benzyl)-2-(3-isopropylpyridin-4-yl)-7-methyl-7,9-dihydro-8H-purin-8-one]
- IC50: > 2 µM

SMILES: CC(C)c1cccnc1-c1ncc2c(n1)n(Cc1ccc(-n3cccn3)cc1)c(=O)n2C [Compound I-517, 9-(4-(1H-Pyrazol-1-yl)benzyl)-2-(3-isopropylpyridin-2-yl)-7-methyl-7,9-dihydro-8H-purin-8-one]
- IC50: > 2 µM

SMILES: COCCn1cc(-c2ccc(Cn3c(=O)[nH]c4cnc(-c5ccccc5C(C)C)nc43)cc2)cn1 [Compound I-518, 2-(2-Isopropylphenyl)-9-(4-(1-(2-methoxyethyl)-1H-pyrazol-4-yl)benzyl)-7,9-dihydro-8H-purin-8-one]
- IC50: 0.05 to 0.2 µM
